Test results from patent US6476039B1, “Ophthalmic composition” (R-Tech Ueno, Ltd., priority 1998, dated 2002).

Experiments:
Type in all cases: in vivo, rabbit
[1] = test system: normal (not diabetic) rabbits; assay: Repair of the wound of keratoepithelial detachment in normal rabbits; details: 0.2% eye drops, 30 μL/eye every 4 hours, area immediately after detachment = 100
Excerpt: In the Experimental Example 1, the influence in rabbits with alloxan-induced diabetes was investigated, while the influence in normal (not diabetic) rabbits was investigated in this Example.
Ten-week-old male New Zealand White rabbits (weighing 2.07±0.11 kg: mean weight at the start of the experiment) were acclimation period for 7 days, while the animals were examined for the general signs including diarrhea and body weight, etc., and the anterior ocular segment was also observed. Only animals without any abnormality were used in the experiment.
Keratoepithelial detachment wounds were prepared as described in the Experimental Example 1.
The test substance was instilled every 4 hours after the keratoepithelial detachment (the first instillation was made immediately after preparation of the wound of keratoepithelial detachment).
Twelve hours after the keratoepithelial detachment, the area of the wound was measured, and its relative value was calculated by taking the area of the wound immediately after the keratoepithelial detachment as 100, and the relative value was used to assess the extent of repair. The area of the wound of keratoepithelial detachment was measured as described in the Experimental Example 1. […]

[2] = test system: alloxan-induced diabetic rabbits; assay: Examination of corneal esthesia (Cochet-Bonnet esthesiometer) in alloxan-induced diabetic rabbits
Description: (§1) Alloxan monohydrate (Lot No. DLJ5619, M.W. 160.09 Wako Pure Chemical Industries, LTD.) of 80 mg/kg was dissolved in 2 mL of physiological saline, and the solution was administered once intravenously of male Japanese albino rabbits [Std: JW/CSK] (11-week-old) to induce diabetes.
(§2) Blood glucose was determined once a week on 4 times after administration of alloxan monohydrate: animals having always blood glucose of 300 mg/dL or more were used as diabetic animals in this Experiment.
(§3) [3-(4-Bromo-2-fluorobenzyl)-7-chloro-2,4-dioxo- 1,2,3,4-tetrahydroquinazolin- 1-yl]acetate, an active ingredient of this invention, having aldose reductase-inhibiting effect was used for preparation of a 0.3% eye drops, and the eye drops were used as the test substance. The vehicle control was the vehicle of the eye drops simply without the active ingredient.
At the time of intravenous administration of alloxan, the drug was instilled into both eyes at 30 μL/eye four times a day over 4 consecutive weeks. Sixteen eyes of 8 animals in each of the test substance group and the vehicle control group were subjected to the examination of corneal esthesia and the examination of tear secretion as follows.
One hour after the second instillation on the day of examination, each animal was fixed in a stainless steel fixator (SHIBATA GLASS WORKS). The central part, the most sensitive part, of the cornea was stimulated 10 times in rapid sequence with a pressure by applying at the right angle a 30 mm nylon thread (Toray Nylon Monofilament, Type 100, No.0.6, diameter φ: 0.027mm, cross section s: 0.0129) of the Cochet-Bonnet type esthesiometer (Handaya Co., Ltd.) so that the nylon thread might be bent only slightly (pressure: […], measured by Handaya), and the number of blink reflex was taken as the corneal esthesia value. The examination was performed before, 2 weeks after and 4 weeks after administration of alloxan.
In both examinations, the test substance group and the vehicle control group were compared with the Williams's test.

[3] = test system: alloxan-induced diabetic rabbits; assay: Repair of the wound of keratoepithelial detachment in alloxan-induced diabetic rabbits; details: 0.1% eye drop, 30 μL/eye every 4 hours, area immediately after detachment = 100, mean±S.E.
Description: Alloxan monohydrate (Lot No. DLJ5619, M.W. 160.09: Wako Pure Chemical Industries, LTD.) of 80 mg/kg was dissolved in 2 mL of physiological saline, and the solution was administered once intravenously of male Japanese albino rabbits [Std: JW/CSK] (11-week-old) to induce diabetes.
Blood glucose was determined weekly after administration of alloxan monohydrate: the mean blood glucose was increased from 142.2±4.7 mg/dL (mean±S.E.; The same is applicable hereinafter.) before administration to 522.5±13.7 mg/dL at 1 week, and this elevated level persisted thereafter. Animals with this alloxan-induced diabetes were used in the experiment. […]
The cornea was stained with fluorescein, and photographs of the anterior ocular segment were taken with the Medical Nikkor Lens attached with a yellow filter (Kodak WRATTEN No.12) and the front part of the flash attached with a blue filter (Kodak WRATTEN No.47). On the projected photographs magnified to the same degree, the stained area was measured with the planimeter. […]
Twelve hours after the keratoepithelial detachment, the area of the wound was measured. Then its relative value was calculated by taking the area of the wound immediately after the keratoepithelial detachment as 100. […]

[4] = test system: rabbits with dry eye syndrome induced by trigeminal denervation; assay: Basal tear secretion in rabbits with dry eye syndrome induced by trigeminal denervation
Excerpt: (§4) Twenty male Japanese albino rabbits [Std:JW/CSK] were used.
(§5) Urethane (ALDRICH, Lot No.069110Q) was intraperitoneally administered at the dose of 1 g/kg to rabbits of which hair at the head after anesthesia had been shaved.
(§6) After disinfection of the shaved area, midline incision of the skin was made from the frontal bone to the ear root, and the periosteum and the muscular tissue around the temporal bone and mandibular articular process were detached. After the detachment, a hole of 2×1.5 cm in size was made in the bone from the parietal medial region to the temporal region by using a bone drill (URAWA KOGYO Co., Ltd., MINITOR.C-130) under the surgical microscope (KONAN CAMERA R& I Inc., PMO-50). Then the dura was detached from the cranial bone while cotton was kept inserted between the temporal bone and the dura. After the detachment was made up to the cranial base, detachment was further made toward the medial border of the petrous part of temporal bone in the cranial cavity, to find the trigeminal nerve in the petrous part. Then the dura of about 1 to 2 mm on the nasal side of the semilunar ganglion was incised. After the incision, the two branches of nerve fascicle, i.e. the first branch of the trigeminal nerve (ocular nerve) and the second branch (maxillary nerve), were pulled laterally and cut with corneoscleral scissors. After confirmation of miosis of the ipsilateral eye immediately after the cut, the cotton kept inserted was removed, and the skin at the head was closed with suture. After the operation, an antibiotic (MYCILLIN SOL®: Meiji) was administered intramuscularly at the dose of 0.1 mL/kg.
(§7) The trigeminal denervation was made only on the left eye side, while the trigeminal denervation on the right eye side or sham operation was not made
(§8) Two-week acclimation period was allowed to pass after the trigeminal denervation.
(§9) [3-(4-Bromo-2-fluorobenzyl)-7-chloro-2,4-dioxo- 1,2,3,4-tetrahydroquinazolin- 1-yl]acetate, an active ingredient of this invention, having aldose reductase-inhibiting effect was used for preparation of 0.03% eye drop, 0.1% eye drop, and 0.3% eye drop, which were used as the test substances. The vehicle control was the base of the eye drops simply without the active ingredient.
(§10) From about 2 weeks after the trigeminal denervation, one of the above-mentioned drugs was instilled at the volume of 30 μL/eye four times a day for 2 consecutive weeks. Five eyes of each of the test substance groups and the control group were examined for the basal tear secretion and the keratoepithelial lesion as follows.
Before the start of instillation (Week 0), and 1 week and 2 weeks after instillation, the basal tear secretion was measured one hour after the second instillation on the day of examination.
Keratoconjunctiva was anesthetized by instillation of 4% lidocaine (Xylocaine® 4% for ophthalmology: Fujisawa Pharmaceutical Co., Ltd.), and the eye drop and the tear around the eyelid were wiped off about 5 minutes later.
When loss of keratoconjunctival esthesia was confirmed with the Cochet-Bonnet type esthesiometer, the edge of the Shirmer's test paper was kept inserted into the conjunctival sac for 5 minutes, and the length of the moistened part was read from the scale on the paper.
The basal tear secretion was expressed by the mean per minute calculated from the 4-minute-value obtained by subtraction of the first-1-minute-value from the 5-minute-value of the Shirmer's test, so that the volume of the tear considered to be retained in the conjunctival sac might be excluded.

[5] = test system: rabbits with dry eye syndrome induced by trigeminal denervation; assay: Keratoepithelial lesion score in rabbits with dry eye syndrome induced by trigeminal denervation
Excerpt: as §4, §5, §6, §7, §8, §9, §10
Before the start of instillation (Week 0), and 1 week and 2 weeks after instillation, the lesion was evaluated one hour after the first instillation on the day of examination.
Each animal was placed in a stainless steel fixator, and given instillation of 50 μL of the mixture of 1% rose bengal and 1% fluorescein, followed by vital staining of the keratoconjunctival epithelium for evaluation of the extent of lesion according to the scoring system shown in Table 5.

[6] = test system: alloxan-induced diabetic rabbits; assay: Examination of tear secretion (Schirmer's test) in alloxan-induced diabetic rabbits; details: 1 minute
Description: as §1, §2, §3
At the time of intravenous administration of alloxan, the drug was instilled into both eyes at 30 μL/eye four times a day over 4 consecutive weeks. […]
One hour after the second instillation on the day of examination, each animal was fixed in a stainless steel fixator, and the edge of the Schirmer's test paper (SHOWA YAKUHIN KAKO, Co., Ltd., Lot No.70080) was inserted into the conjunctival sac to cover the ⅓ of the lower eyelid on the ear side. One minute after, the paper was removed, and the length of the moistened part was read from the scale on the paper. […]

[7] = after 4 weeks, 0.3% eye drops, 30 μL/eye four times a day
[8] = before alloxan (baseline), 0.3% eye drops group

Question: Which “Relative area of wound of keratoepithelial detachment 12 hours after keratoepithelial detachment” value [1] does the source give for `O=C(O)Cn1c(=O)n(Cc2ccc(Br)cc2F)c(=O)c2ccc(Cl)cc21` [compound of the formula (II), [3-(4-bromo-2-fluorobenzyl)-7-chloro-2,4-dioxo-1,2,3,4-tetrahydroquinazolin-1-yl]acetate] here?
Answer: 80.8 ± 2.0 %

Question: And the “Corneal esthesia value (number of blink reflex on 10 stimulations)” value (from here on “Corneal esthesia value”) ([2]; after 2 weeks, 0.3% eye drops, 30 μL/eye four times a day)?
Answer: 5.3 ± 0.7 number of times

Question: What about the “Corneal esthesia value” value [2, 7] of the same compound?
Answer: 5.1 ± 0.6 number of times

Question: And the “Corneal esthesia value” value [2, 8]?
Answer: 5.6 ± 0.3 number of times

Question: What about the “Relative area of wound of keratoepithelial detachment 12 hours after keratoepithelial detachment” value [3] of the same compound?
Answer: 89.0 ± 2.7 %

Question: What about the Basal tear secretion ([4]; 0.03% eye drop group, before instillation (baseline)) of the same compound?
Answer: 0.38 ± 0.09 mm/minute

Question: What about the Basal tear secretion ([4]; 0.03% eye drop, 30 μL/eye four times a day, week 1) of the same compound?
Answer: 0.92 ± 0.17 mm/minute

Question: And the Basal tear secretion ([4]; 0.03% eye drop, 30 μL/eye four times a day, week 2)?
Answer: 1.02 ± 0.09 mm/minute

Question: What about the Basal tear secretion ([4]; 0.1% eye drop group, before instillation (baseline)) of the same compound?
Answer: 0.38 ± 0.13 mm/minute

Question: And the Basal tear secretion ([4]; 0.1% eye drop, 30 μL/eye four times a day, week 1)?
Answer: 1.24 ± 0.14 mm/minute

Question: What about the Basal tear secretion ([4]; 0.1% eye drop, 30 μL/eye four times a day, week 2) of the same compound?
Answer: 1.12 ± 0.11 mm/minute

Question: And the Basal tear secretion ([4]; 0.3% eye drop group, before instillation (baseline))?
Answer: 0.34 ± 0.10 mm/minute

Question: And the Basal tear secretion ([4]; 0.3% eye drop, 30 μL/eye four times a day, week 1)?
Answer: 1.24 ± 0.16 mm/minute

Question: What about the Basal tear secretion ([4]; 0.3% eye drop, 30 μL/eye four times a day, week 2) of the same compound?
Answer: 1.20 ± 0.15 mm/minute

Question: What about the Keratoepithelial lesion ([5]; 0.03% eye drop group, before instillation (baseline), score 0-4 by stained area (Table 5)) of the same compound?
Answer: 2.8 ± 0.4 score

Question: What about the Keratoepithelial lesion ([5]; 0.03% eye drop, four times a day, week 1, score 0-4 (Table 5)) of the same compound?
Answer: 0.5 ± 0.4 score

Question: And the Keratoepithelial lesion ([5]; 0.03% eye drop, four times a day, week 2, score 0-4 (Table 5))?
Answer: 0.2 ± 0.1 score

Question: And the Keratoepithelial lesion ([5]; 0.1% eye drop group, before instillation (baseline), score 0-4 (Table 5))?
Answer: 3.0 ± 0.6 score

Question: What about the Keratoepithelial lesion ([5]; 0.1% eye drop, four times a day, week 1, score 0-4 (Table 5)) of the same compound?
Answer: 0.4 ± 0.2 score

Question: And the Keratoepithelial lesion ([5]; 0.1% eye drop, four times a day, week 2, score 0-4 (Table 5))?
Answer: 0.4 ± 0.2 score

Question: What about the Keratoepithelial lesion ([5]; 0.3% eye drop group, before instillation (baseline), score 0-4 (Table 5)) of the same compound?
Answer: 3.0 ± 0.5 score

Question: What about the Keratoepithelial lesion ([5]; 0.3% eye drop, four times a day, week 1, score 0-4 (Table 5)) of the same compound?
Answer: 0.5 ± 0.4 score

Question: What about the Keratoepithelial lesion ([5]; 0.3% eye drop, four times a day, week 2, score 0-4 (Table 5)) of the same compound?
Answer: 0.1 ± 0.1 score

Question: What about the “tear secretion (Schirmer's test)” value [6, 7] of the same compound?
Answer: 7.1 ± 0.4 mm

Question: And the “tear secretion (Schirmer's test)” value [6, 8]?
Answer: 8.3 ± 0.6 mm
